The target in this test is T1, human orexin type 2 receptor (Homo sapiens, UniProt O43614).
T1 construct: expressed in transfected cells
T1 sequence (O43614 1-444): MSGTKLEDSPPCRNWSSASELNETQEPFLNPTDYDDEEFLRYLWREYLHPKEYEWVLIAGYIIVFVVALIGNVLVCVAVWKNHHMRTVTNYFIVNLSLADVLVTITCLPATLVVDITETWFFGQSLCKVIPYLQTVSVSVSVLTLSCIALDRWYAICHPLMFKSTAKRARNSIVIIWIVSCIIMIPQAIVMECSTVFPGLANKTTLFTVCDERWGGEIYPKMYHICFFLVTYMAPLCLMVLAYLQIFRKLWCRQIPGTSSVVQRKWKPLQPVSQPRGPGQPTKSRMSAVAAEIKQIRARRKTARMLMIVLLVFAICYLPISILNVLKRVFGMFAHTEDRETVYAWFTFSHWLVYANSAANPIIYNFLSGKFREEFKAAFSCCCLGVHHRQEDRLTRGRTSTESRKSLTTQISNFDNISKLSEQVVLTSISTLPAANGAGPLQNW
Kind of test: Measurement of orexin type 2 receptor agonist activity (calcium fluorescence, Fluo-4 AM, FDSS) in CHO cells forcibly expressing human OX2 receptor. As to conditions: test compound 3 μM, DMSO = 0%, orexin A (human) 10 nM = 100%. It counts as cell-based. The source says: To obtain a cell clone stably expressing human orexin type 2 receptor, human orexin type 2 receptor cDNA was inserted into pcDNA3.1(+) plasmid vector (Invitrogen), and a plasmid DNA for expression of human orexin type 2 receptor (pcDNA3.1(+)/hOX2R) was cloned. The plasmid DNA was introduced into CHO-dhfr cell by an electroporation method, and human orexin type 2 receptor expressing clone cells were obtained by limiting dilution method by using G418 drug resistance as a selection marker.
CHO cells forcibly expressing human OX2 receptor were seeded in each well of 384 well black transparent bottom plate (BD Falcon) at 7,500 cells/well, and cultured for one day in a 5% CO2 incubator at 37° C. After removal of the medium in the cell plate, assay buffer A containing a calcium indicator (HBSS (Thermo Fisher Scientific), 20 mM HEPES (Thermo Fisher Scientific), 0.1% BSA (Sigma-Aldrich), 2.5 μg/mL Fluo-4 AM (DOJINDO Chemical), 0.08% Pluronic F127 (DOJINDO Chemical), 1.25 mM probenecid (DOJINDO Chemical)) was added at 30 μL/well. The plate was stood for 30 min in a 5% CO2 incubator at 37° C., and further stood at room temperature for 30 min. A test compound prepared by diluting with assay buffer B (HBSS, 20 mM HEPES, 0.1% BSA) was added at 10 μL/well, and the fluorescence value was measured by FDSSpCELL (Hamamatsu Photonics K.K.) every one sec for 1 min, and thereafter every two sec for 1 min 40 sec. The activity (%) of the test compound was calculated assuming that variation in the fluorescence value when DMSO was added instead of the test compound was 0%, and variation in the fluorescence value when orexin A (human) (PEPTIDE INSTITUTE, INC.) was added at the final concentration of 10 nM was 100%.
For the molecule `CC(C)n1cnc2c(c1=O)C(Cc1cccc(-c3ccccc3)c1)C(NS(C)(=O)=O)C(F)C2=O` (racemic) [Example 179, N-[(5RS,6RS)-5-[([1,1′-biphenyl]-3-yl)methyl]-7-fluoro-4,8-dioxo-3-(propan-2-yl)-3,4,5,6,7,8-hexahydroquinazolin-6-yl]methanesulfonamide], the “0X2R agonist activity (3 μM, %)” value came out at 100%. With `CCn1ccc2c(c1=O)[C@@H](Cc1cccc(-c3cccn(C)c3=O)c1)[C@@H](NS(C)(=O)=O)CC2` (racemic) [Example 129, rac-N-[(7S,8R)-2-ethyl-8-{[3-(1-methyl-2-oxo-1,2-dihydropyridin-3-yl)phenyl]methyl}-1-oxo-1,2,5,6,7,8-hexahydroisoquinolin-7-yl]methanesulfonamide], the “0X2R agonist activity (3 μM, %)” value is 98%.

`Cc1ccc2n(c1=O)[C@@H](Cc1csc(-c3cccc(F)c3)n1)[C@@H](NS(C)(=O)=O)CC2` (racemic) [Example 64, rac-N-[(3S,4S)-4-{[2-(3-fluorophenyl)-1,3-thiazol-4-yl]methyl}-7-methyl-6-oxo-1,3,4,6-tetrahydro-2H-quinolizin-3-yl]methanesulfonamide]: the “0X2R agonist activity (3 μM, %)” value was found to be 100%. With `CC(C)n1cnc2c(c1=O)[C@@H](Cc1cccc(-c3cccc(F)c3F)c1F)[C@@H](NS(=O)(=O)C1(F)CC1)CC2` [Example 184, 1-fluoro-N-{(5R,6S)-4-oxo-3-(propan-2-yl)-5-[(2,2′,3′-trifluoro[1,1′-biphenyl]-3-yl)methyl]-3,4,5,6,7,8-hexahydroquinazolin-6-yl}cyclopropane-1-sulfonamide] the figure was 98%; with `CC(C)n1cnc2c(c1=O)[C@@H](Cc1csc(-c3ccccc3F)n1)[C@@H](NS(=O)(=O)C1(F)CC1)CC2` (relative stereo) [Example 156, rel-1-fluoro-N-[(5R,6S)-5-{[2-(2-fluorophenyl)-1,3-thiazol-4-yl]methyl}-4-oxo-3-(propan-2-yl)-3,4,5,6,7,8-hexahydroquinazolin-6-yl]cyclopropane-1-sulfonamide], 93%. The same measure for `CCc1ccc2n(c1=O)[C@@H](Cc1cccc(C3CC3)c1)[C@@H](NS(C)(=O)=O)CC2` (racemic) [Example 136, rac-N-{(3S,4S)-4-[(3-cyclopropylphenyl)methyl]-7-ethyl-6-oxo-1,3,4,6-tetrahydro-2H-quinolizin-3-yl}methanesulfonamide]: 89%; for `Cc1cccc(-c2cccc(C[C@@H]3c4c(ncn(C(C)C)c4=O)CC[C@@H]3NS(C)(=O)=O)c2)c1F` (racemic) [Example 108, rac-N-[(5R,6S)-5-[(2′-fluoro-3′-methyl[1,1′-biphenyl]-3-yl)methyl]-4-oxo-3-(propan-2-yl)-3,4,5,6,7,8-hexahydroquinazolin-6-yl]methanesulfonamide]: 100%.

On to `CCS(=O)(=O)N[C@H]1CCc2ncn(C(C)C)c(=O)c2[C@H]1Cc1cccc(-c2cc(C)cc(C)n2)c1` (racemic) [Example 102, rac-N-[(5R,6S)-5-{[3-(4,6-dimethylpyridin-2-yl)phenyl]methyl}-4-oxo-3-(propan-2-yl)-3,4,5,6,7,8-hexahydroquinazolin-6-yl]ethanesulfonamide], for which the “0X2R agonist activity (3 μM, %)” value is 100%. With `CCS(=O)(=O)N[C@H]1CCc2ncn(C(C)C)c(=O)c2[C@H]1Cc1cccc(-c2cccc(F)c2F)c1` [Example 200, N-[(5R,6S)-5-[(2′,3′-difluoro[1,1′-biphenyl]-3-yl)methyl]-4-oxo-3-(propan-2-yl)-3,4,5,6,7,8-hexahydroquinazolin-6-yl]ethanesulfonamide] the figure was 89%. As for `CC(C)c1nn(C)c2c(c1=O)[C@@H](Cc1cccc(-c3ccccc3)c1)[C@@H](NS(C)(=O)=O)CC2` (racemic) [Example 158, rac-N-[(5R,6S)-5-[([1,1′-biphenyl]-3-yl)methyl]-1-methyl-4-oxo-3-(propan-2-yl)-1,4,5,6,7,8-hexahydrocinnolin-6-yl]methanesulfonamide], the “0X2R agonist activity (3 μM, %)” value came to 101%. The same measure for `Cc1ccc2n(c1=O)C(Cc1ccc(-c3ccccc3)cc1)C(NS(C)(=O)=O)CC2` (racemic) [Example 214, rac-N-{(3S,4S)-4-[([1,1′-biphenyl]-4-yl)methyl]-7-methyl-6-oxo-1,3,4,6-tetrahydro-2H-quinolizin-yl}methanesulfonamide]: 52%. For `CCS(=O)(=O)N[C@H]1CCc2ncn(C(C)C)c(=O)c2[C@H]1Cc1cccc(-c2cccc(F)c2F)c1` (racemic) [Example 85, rac-N-[(5R,6S)-5-[(2′,3′-difluoro[1,1′-biphenyl]-3-yl)methyl]-4-oxo-3-(propan-2-yl)-3,4,5,6,7,8-hexahydroquinazolin-6-yl]ethanesulfonamide], the “0X2R agonist activity (3 μM, %)” value is listed as 98%. In the case of `CC(C)n1cnc2c(c1=O)[C@@H](Cc1cccc(-c3cc(F)cc(F)c3)c1F)[C@@H](NS(=O)(=O)CF)CC2` [Example 199, 1-fluoro-N-{(5R,6S)-4-oxo-3-(propan-2-yl)-5-[(2,3′,5′-trifluoro[1,1′-biphenyl]-3-yl)methyl]-3,4,5,6,7,8-hexahydroquinazolin-6-yl}methanesulfonamide], the “0X2R agonist activity (3 μM, %)” value is on record as 90%. With `CC(C)N1CNC2=C(C1=O)[C@@H](Cc1cccc(-c3ccccc3)c1)[C@@H](NS(C)(=O)=O)CC2(F)F` (racemic) [Example 162, rac-N-[(5R,6S)-5-[([1,1′-biphenyl]-3-yl)methyl]-8,8-difluoro-4-oxo-3-(propan-2-yl)-1,2,3,4,5,6,7,8-octahydroquinazolin-6-yl]methanesulfonamide] the figure was 101%; with `CS(=O)(=O)NC1CCc2ccc(C(F)(F)F)c(=O)n2C1Cc1cccc(-c2ccccc2)c1` (racemic) [Example 12, rac-N-[(3S,4S)-4-[([1,1′-biphenyl]-3-yl]methyl-6-oxo-7-(trifluoromethyl)-1,3,4,6-tetrahydro-2H-quinolizin-3-yl]methanesulfonamide], 112%. Turning to `Cc1ccc2n(c1=O)C(Cc1cccc(-c3cccc(F)c3)c1)C(NC(=O)[C@@H]1CCCO1)CC2` (mixture of isomers) [Example 26, (2S)-N-{(3SR,4SR)-4-[(3′-fluoro[1,1′-biphenyl]-3-yl)methyl]-7-methyl-6-oxo-1,3,4,6-tetrahydro-2H-quinolizin-3-yl}oxolane-2-carboxamide], the “0X2R agonist activity (3 μM, %)” value is listed as 101%. With `CCn1ccc2c(c1=O)[C@@H](Cc1cccc(-c3ccccc3)c1)[C@@H](NS(C)(=O)=O)CC2` (racemic) [Example 47, rac-N-{(7S,8R)-8-[([1,1′-biphenyl]-3-yl)methyl]-2-ethyl-1-oxo-1,2,5,6,7,8-hexahydroisoquinolin-7-yl}methanesulfonamide] the figure was 96%; with `Cc1cc(C)c(=O)n2c1CC[C@H](NS(C)(=O)=O)[C@@H]2Cc1cccc(-c2ccccc2)c1` (racemic) [Example 13, rac-N-{(3S,4S)-4-[([1,1′-biphenyl]-3-yl)methyl]-7,9-dimethyl-6-oxo-1,3,4,6-tetrahydro-2H-quinolizin-3-yl}methanesulfonamide], 112%.
